Reference: ChEMBL document CHEMBL5390201, “The Natural Alkaloid (-)-N-Hydroxyapiosporamide Suppresses Colorectal Tumor Progression as an NF-κB Pathway Inhibitor by Targeting the TAK1-TRAF6 Complex” (J Nat Prod, 2023)
Calls of active or inactive are those of the source. The rule behind the calls is not given here.

Columns and labels:
[1] = molecular target: T1, Nuclear factor NF-kappa-B complex (Homo sapiens) (UniProt Q00653+P19838+Q04206); test: Inhibition of TNF-alpha induced NFkappaB activation in human HCT-116 cells assessed as inhibition of p65 nuclear translocation at 10 uM pretreated for 6 hrs followed by TNFalpha stimulation for 15 mins by immunohistochemical analysis; format: cell-based; conditions: time 6.25 hrs
[2] = tested on: HCT-116; test: Induction of autophagy in human HCT-116 cells transfected with GFP-LC3 assessed as increase in LC3 dot puncta at 1 to 10 uM incubated for 24 hrs by fluorescence microscopy; format: functional, cell-based; conditions: dose 1-10 µM
[3] = tested on: HCT-116; test: Inhibition of colony formation in human HCT-116 cells at 0.25 to 10 uM incubated for 24 hrs and measured after 14 days by crystal violet staining based assay; format: functional, cell-based; conditions: dose 0.25-10 µM, time 14.0 day
[4] = tested on: HCT-116; test: Induction of autophagic flux in human HCT-116 cells assessed as increase in LC3 protein expression preincubated with chloroquine for 1 hr followed by compound addition and measured after 24 hrs by Western blot analysis; format: functional, cell-based
[5] = tested on: HEK-293T; test: Inhibition of Flag-tagged TAK1/HA-tagged TRAF6 (unknown origin) protein-protein interaction transfected in HEK293T cells at 2 uM incubated for 6 hrs by co-immunoprecipitation method; format: cell-based; conditions: Homo sapiens
[6] = tested on: HT-29; test: Induction of autophagic cell death in human HT-29 cells at 1 to 10 uM pretreated with chloroquine for 1 hr followed by compound addition and measured after 24 hrs by SRB assay; format: functional, cell-based; conditions: dose 1-10 µM
[7] = tested on: Cell membrane; test: Disruption of mitochondrial membrane potential in human HT-29 cells at 0.25 to 10 uM measured after 24 hrs by JC-1 staining based flow cytometry analysis; format: subcellular; conditions: dose 0.25-10 µM
[8] = Toxicity in athymic nude BALB/c mouse xenografted with human HT-29 cells assessed as pathological changes in liver at 5 to 15 mg/kg, ip administered every other day and measured after 14 days by hematoxylin and eosin staining-based microscopic analysis; format: organism-based; conditions: in vivo, 336 h, dose 5-15 mg/kg, time 14 day
[9] = tested on: HT-29; test: Induction of cell cycle arrest in human HT-29 cells assessed as accumulation of cells at G2/M phase at 5 uM by RNase/PI staining based flow cytometry analysis (reference value: 9.93 %); format: functional
[10] = tested on: HT-29; test: Induction of apoptosis in human HT-29 cells assessed as early apoptotic cells at 1 uM incubated for 24 hrs by Annexin V-FITC/PI staining based flow cytometric analysis (reference value: 5.29 %); format: functional
[11] = tested on: HCT-116; test: Induction of cell cycle arrest in human HCT-116 cells assessed as decrease in P-cdc2 protein expression upto 10 uM incubated for 24 hrs by Western blot analysis; format: functional, cell-based
[12] = tested on: SW480; test: Cytotoxicity against human SW480 cells assessed as decrease in cell viability incubated for 48 hrs by SRB assay; format: functional, cell-based; conditions: SW480, 48 h
[13] = tested on: HT-29; test: Induction of apoptosis in human HT-29 cells assessed as early apoptotic cells at 10 uM incubated for 24 hrs by Annexin V-FITC/PI staining based flow cytometric analysis (reference value: 5.29 %); format: functional
[14] = tested on: Mus musculus; test: In vivo inhibition of NFkappaB activation in athymic BALB/c mouse xenografted with human HCT-116 cells assessed as reduction in E-selectin gene expression in tumor at 15 mg/kg, ip administered every other day and measured after 14 days by qRT-PCR analysis; format: functional, organism-based; conditions: time 14.0 day
[15] = tested on: HCT-116; test: Induction of apoptosis in human HCT-116 cells assessed as inhibition of caspase 8 protein expression measured for 24 hrs by Western blot analysis; format: functional, cell-based; conditions: dose 0-10 µM
[16] = tested on: HCT-116; test: Antitumor activity against human HCT-116 cells xenografted in athymic nude BALB/c mouse assessed as induction of apoptosis by measuring increase in cleaved caspase 3 expression in tumor at 15 mg/kg, ip administered every other day and measured after 14 days by immunohistochemistry analysis; format: functional, organism-based; conditions: time 14.0 day
[17] = tested on: HCT-116; test: Induction of apoptosis in human HCT-116 cells assessed as early apoptotic cells at 5 uM preincubated with Z-VAD-FMK for 1 hr followed by compound addition and measured after 24 hrs by Annexin V-FITC/PI staining based flow cytometric analysis (reference value: 4.75 %); format: functional
[18] = tested on: HT-29; test: Induction of cell cycle arrest in human HT-29 cells assessed as accumulation of cells at S phase at 5 uM by RNase/PI staining based flow cytometry analysis (reference value: 39.34%); format: functional
[19] = tested on: HCT-116; test: Induction of apoptosis in human HCT-116 cells assessed as viable cells at 0.25 uM incubated for 24 hrs by Annexin V-FITC/PI staining based flow cytometric analysis (reference value: 88.8%); format: functional; conditions: read-out: Activity
[20] = tested on: RKO; test: Cytotoxicity against human RKO cells assessed as decrease in cell viability incubated for 48 hrs by SRB assay; format: functional, cell-based
[21] = tested on: HT-29; test: Induction of cell cycle arrest in human HT-29 cells assessed as decrease in Cdc2 protein expression upto 10 uM incubated for 24 hrs by Western blot analysis; format: functional, cell-based
[22] = tested on: HT-29; test: Induction of apoptosis in human HT-29 cells assessed as increase in cleavage of PARP measured for 24 hrs by Western blot analysis; format: functional, cell-based; conditions: dose 0-10 µM
[23] = tested on: Mus musculus; test: Anti-inflammatory activity in AOM/DSS-induced BALB/c mouse model inflammatory bowel disease assessed as reduction in DAI score at 5 to 10 mg/kg, ip pretreated with AOM for 7 days further replaced with DSS for 7 days and repeated for 2 times followed by every 2 days compound treatment for […] starting from day 50 and measured once a week; format: functional, organism-based; conditions: dose 5-10 mg/kg, time 21.0 day
[24] = tested on: HCT-116; test: Induction of autophagy in human HCT-116 cells assessed as increase in autophagic vesicles at 1 to 10 uM incubated for 24 hrs MDC staining-based fluorescence microscopy; format: functional, cell-based; conditions: dose 1-10 µM
[25] = tested on: HT-29; test: Induction of apoptosis in human HT-29 cells assessed as necrotic cells at 1 uM incubated for 24 hrs by Annexin V-FITC/PI staining based flow cytometric analysis (reference value: 0.14 %); format: functional
[26] = tested on: SW-620; test: Cytotoxicity against human SW620 cells assessed as decrease in cell viability incubated for 48 hrs by SRB assay; format: functional, cell-based; conditions: SW-620, 48 h
[27] = tested on: HCT-116; test: Induction of apoptosis in human HCT-116 cells assessed as viable cells at 0.5 uM incubated for 24 hrs by Annexin V-FITC/PI staining based flow cytometric analysis (reference value: 88.8%); format: functional; conditions: read-out: Activity
[28] = tested on: HT-29; test: Antitumor activity against human HT-29 cells xenografted in athymic nude BALB/c mouse assessed as induction of apoptosis by measuring increase in cleaved PARP expression in tumor at 15 mg/kg, ip administered every other day and measured after 14 days by immunohistochemistry analysis; format: functional, organism-based; conditions: time 14.0 day
[29] = tested on: HT-29; test: Induction of cell cycle arrest in human HT-29 cells assessed as decrease in Cdc25c protein expression upto 10 uM incubated for 24 hrs by Western blot analysis; format: functional, cell-based
[30] = tested on: HCT-116; test: Induction of cell cycle arrest in human HCT-116 cells assessed as accumulation of cells at G2/M phase at 5 uM by RNase/PI staining based flow cytometry analysis (reference value: 23.15 %); format: functional
[31] = molecular target: T1, Nuclear factor NF-kappa-B complex (Homo sapiens); test: Inhibition of TNF-alpha induced NFkappaB activation in human HT-29 cells assessed as downregulation of MCP-1 gene expression pretreated for 24 hrs followed by TNFalpha stimulation and measured after 2 hrs by quantitative RT-PCR analysis; format: cell-based; conditions: dose 1-10 µM, time 26.0 hrs
[32] = tested on: HT-29; test: Cytotoxicity against human HT-29 cells assessed as inhibition of cell growth incubated for 24 hrs by SRB assay; format: functional, cell-based; conditions: HT-29, 24 h

T1 sequence (P19838 whole entry, looked up): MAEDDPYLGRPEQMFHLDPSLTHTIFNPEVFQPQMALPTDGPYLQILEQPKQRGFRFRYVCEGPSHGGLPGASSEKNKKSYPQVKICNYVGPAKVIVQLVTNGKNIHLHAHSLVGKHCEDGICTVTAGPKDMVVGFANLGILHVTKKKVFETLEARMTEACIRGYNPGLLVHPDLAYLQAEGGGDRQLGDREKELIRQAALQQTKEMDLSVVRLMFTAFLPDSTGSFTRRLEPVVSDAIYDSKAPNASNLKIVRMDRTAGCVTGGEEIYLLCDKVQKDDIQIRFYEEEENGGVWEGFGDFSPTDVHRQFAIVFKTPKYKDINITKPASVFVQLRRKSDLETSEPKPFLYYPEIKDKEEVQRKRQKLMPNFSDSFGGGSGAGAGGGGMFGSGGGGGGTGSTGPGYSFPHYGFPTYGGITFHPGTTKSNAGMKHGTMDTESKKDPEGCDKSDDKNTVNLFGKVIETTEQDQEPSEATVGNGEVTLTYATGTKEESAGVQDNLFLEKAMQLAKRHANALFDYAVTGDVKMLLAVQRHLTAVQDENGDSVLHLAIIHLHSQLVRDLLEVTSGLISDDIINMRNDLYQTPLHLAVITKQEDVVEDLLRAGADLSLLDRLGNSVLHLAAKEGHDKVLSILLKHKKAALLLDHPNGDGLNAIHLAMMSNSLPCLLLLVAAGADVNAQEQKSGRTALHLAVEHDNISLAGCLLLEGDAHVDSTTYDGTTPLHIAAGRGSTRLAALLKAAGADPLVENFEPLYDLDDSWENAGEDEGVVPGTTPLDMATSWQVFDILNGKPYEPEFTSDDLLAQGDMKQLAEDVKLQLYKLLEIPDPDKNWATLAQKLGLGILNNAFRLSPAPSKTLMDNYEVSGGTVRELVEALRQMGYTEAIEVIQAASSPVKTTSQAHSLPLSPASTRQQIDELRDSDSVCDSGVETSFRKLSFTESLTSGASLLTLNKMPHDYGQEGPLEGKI
T1 sequence (Q00653 whole entry, looked up): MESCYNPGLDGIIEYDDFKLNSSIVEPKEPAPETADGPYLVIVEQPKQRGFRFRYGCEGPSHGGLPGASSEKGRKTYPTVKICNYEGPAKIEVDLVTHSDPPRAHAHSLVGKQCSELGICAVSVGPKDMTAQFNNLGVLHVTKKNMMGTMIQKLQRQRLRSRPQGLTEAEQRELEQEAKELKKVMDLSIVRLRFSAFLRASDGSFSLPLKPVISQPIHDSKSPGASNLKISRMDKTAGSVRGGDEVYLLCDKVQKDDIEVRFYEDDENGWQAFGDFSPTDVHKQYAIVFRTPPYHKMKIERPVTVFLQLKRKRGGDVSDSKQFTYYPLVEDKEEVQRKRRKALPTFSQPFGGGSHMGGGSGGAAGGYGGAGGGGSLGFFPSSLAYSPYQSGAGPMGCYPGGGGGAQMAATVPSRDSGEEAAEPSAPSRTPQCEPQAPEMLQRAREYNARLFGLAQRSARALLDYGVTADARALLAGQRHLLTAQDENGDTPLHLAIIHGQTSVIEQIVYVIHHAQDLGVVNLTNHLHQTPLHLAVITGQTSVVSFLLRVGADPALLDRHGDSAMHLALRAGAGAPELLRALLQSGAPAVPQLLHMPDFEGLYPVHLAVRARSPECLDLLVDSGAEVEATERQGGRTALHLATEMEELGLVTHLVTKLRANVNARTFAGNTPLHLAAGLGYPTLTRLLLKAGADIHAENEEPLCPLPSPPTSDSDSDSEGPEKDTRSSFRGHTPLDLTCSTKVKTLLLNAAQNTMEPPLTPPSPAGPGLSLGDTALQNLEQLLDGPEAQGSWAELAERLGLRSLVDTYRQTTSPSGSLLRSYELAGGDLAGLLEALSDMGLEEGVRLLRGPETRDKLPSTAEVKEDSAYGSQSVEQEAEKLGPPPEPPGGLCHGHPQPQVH
T1 sequence (Q04206 whole entry, looked up): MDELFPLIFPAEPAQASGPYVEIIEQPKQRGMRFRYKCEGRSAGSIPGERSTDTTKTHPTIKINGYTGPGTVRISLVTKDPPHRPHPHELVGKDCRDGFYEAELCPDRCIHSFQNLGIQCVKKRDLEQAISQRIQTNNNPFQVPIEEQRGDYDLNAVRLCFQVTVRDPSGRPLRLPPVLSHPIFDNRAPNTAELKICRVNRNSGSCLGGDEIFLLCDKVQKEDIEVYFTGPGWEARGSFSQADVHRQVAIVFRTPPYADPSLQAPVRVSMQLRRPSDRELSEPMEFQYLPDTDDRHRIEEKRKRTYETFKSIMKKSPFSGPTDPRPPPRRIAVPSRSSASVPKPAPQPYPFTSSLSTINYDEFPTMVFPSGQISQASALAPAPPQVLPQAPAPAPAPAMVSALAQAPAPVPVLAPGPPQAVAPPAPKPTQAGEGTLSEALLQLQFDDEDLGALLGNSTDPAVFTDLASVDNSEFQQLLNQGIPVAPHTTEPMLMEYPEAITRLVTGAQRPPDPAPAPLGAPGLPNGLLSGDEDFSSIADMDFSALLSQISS

C[C@@H]1CC[C@H]2[C@H](C(=O)c3c(O)c([C@@]4(O)CC[C@@H](O)[C@H]5O[C@H]54)cn(O)c3=O)[C@H](C)C=C[C@@H]2C1
inhibition [1]: Active
Activity [2]: Active
inhibition [3]: Active
Activity [4]: Active
inhibition [5]: Active
Activity [6]: inactive
Activity [7]: Active
Activity [8]: Non-Toxic
Activity [9]: 0.17%
Activity [10]: 47.4%
Activity [11]: Active
IC50 [12]: 570 nM
Activity [13]: 46.2%
inhibition [14]: Active
Activity [15]: Dose-Dependent Effect
Activity [16]: Active
Activity [17]: 16.8%
Activity [18]: 32.46%
viability at 0.25 µM [19]: 59.9%
IC50 [20]: 570 nM
Activity [21]: Active
Activity [22]: Dose-Dependent Effect
Activity [23]: Active
Activity [24]: Active
Activity [25]: 0.4%
IC50 [26]: 570 nM
viability at 0.5 µM [27]: 51.7%
Activity [28]: Active
Activity [29]: Active
Activity [30]: 15.66%
inhibition [31]: Dose-Dependent Effect
IC50 [32]: 610 nM
